According to patent US20250282794A1 (CURADEV PHARMA LTD, priority 2022, published 2025):
Where a name gives a salt, the structure may show the parent alone.

Each compound was assayed against recombinant full length HPK-1 enzyme (Homo sapiens (Human), UniProt Q92918) (assay: HPK-1 biochemical enzyme assay (ADP-Glo kinase inhibition)). Details: recombinant full length HPK-1 6.8 nM, 10 μM ATP, 12.5 μM MBP, 30 mins at 25° C.
Summary of the method: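 Recombinant full-length human HPK-1 (6.8 nM) incubated 30 min at 25° C. with 10 μM ATP and 12.5 μM swine MBP in 40 mM Tris pH 7.4, 20 mM MgCl2, 50 μM DTT, 0.1 mg/mL BSA. ADP measured by ADP-Glo; IC50 from 10 concentrations, normalized to no-enzyme and vehicle controls.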

Sequence of recombinant full length HPK-1 enzyme (Q92918 whole entry, species assumed): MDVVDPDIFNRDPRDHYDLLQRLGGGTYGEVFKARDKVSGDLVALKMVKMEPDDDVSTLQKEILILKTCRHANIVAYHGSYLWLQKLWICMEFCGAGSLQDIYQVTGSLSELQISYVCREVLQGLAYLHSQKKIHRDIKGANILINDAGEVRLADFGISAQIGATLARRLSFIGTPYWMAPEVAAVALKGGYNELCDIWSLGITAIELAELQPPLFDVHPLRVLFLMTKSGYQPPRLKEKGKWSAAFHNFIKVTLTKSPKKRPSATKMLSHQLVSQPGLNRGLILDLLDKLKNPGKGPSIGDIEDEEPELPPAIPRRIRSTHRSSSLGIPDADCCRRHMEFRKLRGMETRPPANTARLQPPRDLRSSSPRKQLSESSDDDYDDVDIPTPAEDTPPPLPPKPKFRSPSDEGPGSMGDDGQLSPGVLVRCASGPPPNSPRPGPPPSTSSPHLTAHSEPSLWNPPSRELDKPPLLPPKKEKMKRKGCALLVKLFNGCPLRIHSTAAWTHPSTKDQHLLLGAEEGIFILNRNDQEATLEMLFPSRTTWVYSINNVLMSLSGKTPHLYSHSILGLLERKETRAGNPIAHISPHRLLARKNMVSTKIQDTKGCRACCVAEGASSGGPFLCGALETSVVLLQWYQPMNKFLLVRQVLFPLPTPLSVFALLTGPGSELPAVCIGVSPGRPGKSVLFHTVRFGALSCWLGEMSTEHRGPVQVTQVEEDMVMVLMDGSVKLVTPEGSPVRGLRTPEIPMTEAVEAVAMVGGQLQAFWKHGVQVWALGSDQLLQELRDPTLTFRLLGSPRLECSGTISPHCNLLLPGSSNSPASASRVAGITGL

Q: How did the IC50 turn out when `CNC(=O)N1CCN(c2ccc(NC(=O)c3c(Nc4cnc5c(c4C)NCCO5)cc[nH]c3=O)cc2)CC1` [Example 287, N-methyl-4-(4-(4-((8-methyl-2,3-dihydro-1H-pyrido[2,3-b][1,4]oxazin-7-yl)amino)-2-oxo-1,2-dihydropyridine-3-carboxamido)phenyl)piperazine-1-carboxamide] was run?
A: 10 to 100 nM

Q: How did the IC50 turn out when `Cc1c(Nc2cc[nH]c(=O)c2C(=O)Nc2ccc(C[C@H]3COC(=O)N3)cc2)cnc2c1NCCO2` [Example 228, (S)-4-((8-methyl-2,3-dihydro-1H-pyrido[2,3-b][1,4]oxazin-7-yl)amino)-2-oxo-N-(4-((2-oxooxazolidin-4-yl)methyl)phenyl)-1,2-dihydropyridine-3-carboxamide] was run?
A: 10 to 100 nM

Q: How did the IC50 turn out when `Cc1c(Nc2cc[nH]c(=O)c2C(=O)Nc2ccc(N3CCOCC3)cc2)cnc2c1NCCO2` [Example 205, 4-((8-methyl-2,3-dihydro-1H-pyrido[2,3-b][1,4]oxazin-7-yl)amino)-N-(4-morpholinophenyl)-2-oxo-1,2-dihydropyridine-3-carboxamide] was run?
A: 10 to 100 nM

Q: How did the IC50 turn out when `Cc1c(Nc2cc[nH]c(=O)c2C(=O)Nc2ccc(N3CCN(C)CC3=O)cc2)cnc2c1NCCO2` [Example 267, 4-((8-methyl-2,3-dihydro-1H-pyrido[2,3-b][1,4]oxazin-7-yl)amino)-N-(4-(4-methyl-2-oxopiperazin-1-yl)phenyl)-2-oxo-1,2-dihydropyridine-3-carboxamide] was run?
A: 10 to 100 nM

Q: How did the IC50 turn out when `CN1CCN(c2ccc(NC(=O)c3c(Nc4cnc5c(c4)NCCO5)cc[nH]c3=O)cc2)CC1` [Example 115, 4-((2,3-dihydro-1H-pyrido[2,3-b][1,4]oxazin-7-yl)amino)-N-(4-(4-methylpiperazin-1-yl)phenyl)-2-oxo-1,2-dihydropyridine-3-carboxamide.TFA] was run?
A: 10 to 100 nM

Q: How did the IC50 turn out when `Cc1c(Nc2cc[nH]c(=O)c2C(=O)Nc2ccc(N3CCN(c4cccnc4)CC3)cc2)cnc2c1NCCO2` [Example 286, 4-((8-methyl-2,3-dihydro-1H-pyrido[2,3-b][1,4]oxazin-7-yl)amino)-2-oxo-N-(4-(4-(pyridin-3-yl)piperazin-1-yl)phenyl)-1,2-dihydropyridine-3-carboxamide] was run?
A: ≤ 10 nM

Q: For `Cc1c(Nc2cc[nH]c(=O)c2C(=O)Nc2ccc3nc(NC(=O)[C@@H]4C[C@@H]4F)sc3c2)cnc2c1NCCO2` [Example 296, N-(2-((1S,2S)-2-fluorocyclopropane-1-carboxamido)benzo[d]thiazol-6-yl)-4-((8-methyl-2,3-dihydro-1H-pyrido[2,3-b][1,4]oxazin-7-yl)amino)-2-oxo-1,2-dihydropyridine-3-carboxamide], which IC50 is on record?
A: 100 to 1000 nM

Q: Which IC50 does the source give for `CCC(=O)N1CCN(c2ccc(NC(=O)c3c(Nc4cnc5c(c4C)NCCO5)cc[nH]c3=O)cc2)CC1` [Example 251, 4-((8-methyl-2,3-dihydro-1H-pyrido[2,3-b][1,4]oxazin-7-yl)amino)-2-oxo-N-(4-(4-propionylpiperazin-1-yl)phenyl)-1,2-dihydropyridine-3-carboxamide] here?
A: ≤ 10 nM

Q: With `Cc1c(Nc2cc[nH]c(=O)c2C(=O)Nc2ccc(N3CCN(C(=O)C4CC4)CC3)cc2)cnc2c1NCCO2` [Example 332, N-(4-(4-(cyclopropanecarbonyl)piperazin-1-yl)phenyl)-4-((8-methyl-2,3-dihydro-1H-pyrido[2,3-b][1,4]oxazin-7-yl)amino)-2-oxo-1,2-dihydropyridine-3-carboxamide] as the compound, how does the IC50 read?
A: ≤ 10 nM

Q: `CCN1CCN(c2ccc(NC(=O)c3c(Nc4cnc5c(c4C)NCC(C)O5)cc[nH]c3=O)cc2F)CC1` (centres unmarked) [Example 385, 4-((3,8-dimethyl-2,3-dihydro-1H-pyrido[2,3-b][1,4]oxazin-7-yl)amino)-N-(4-(4-ethylpiperazin-1-yl)-3-fluorophenyl)-2-oxo-1,2-dihydropyridine-3-carboxamide] was tested. Which IC50 did it give?
A: 10 to 100 nM

Q: `COCCN1CCN(c2ccc(NC(=O)c3c(Nc4cnc5c(c4C)NCC(C)(C)O5)cc[nH]c3=O)cc2)CC1` [Example 173, N-(4-(4-(2-methoxyethyl)piperazin-1-yl)phenyl)-2-oxo-4-((3,3,8-trimethyl-2,3-dihydro-1H-pyrido[2,3-b][1,4]oxazin-7-yl)amino)-1,2-dihydropyridine-3-carboxamide] was tested. Which IC50 did it give?
A: 10 to 100 nM
